Test results as given in US9249125B2, “Pyrazole derivatives as p38 MAP inhibitors” (RESPIVERT LIMITED, priority 2012, dated 2016).

How the values were obtained:
[1] = target: p38 MAPKα (Homo sapiens (Human), UniProt Q16539); experiment: p38 MAPKα enzyme inhibition (FRET, Z-LYTE); assay type: biochemical
Protocol: (§1) The enzyme inhibitory activities of compounds disclosed herein are determined by FRET using synthetic peptides labelled with both donor and acceptor fluorophores (Z-LYTE, Invitrogen Ltd., Paisley, UK).
The inhibitory activities of test compounds against the p38 MAPKα isoform (MAPK14: Invitrogen), are evaluated indirectly by determining the level of activation/phosphorylation of the down-stream molecule, MAPKAP-K2. The p38 MAPKα protein (80 ng/mL, 2.5 μL) is mixed with the test compound (2.5 μL of either 4 μg/mL, 0.4 μg/mL, 0.04 μg/mL or 0.004 μg/mL) for 2 hr at RT. […] The mixture is incubated for 1 hr at RT. Development reagent (protease, 5 μL) is added for 1 hr prior to detection in a fluorescence microplate reader (Varioskan® Flash, ThermoFisher Scientific).
(§2) In all cases, the site-specific protease cleaves non-phosphorylated peptide only and eliminates the FRET signal. Phosphorylation levels of each reaction are calculated using the ratio of coumarin emission (donor) over fluorescein emission (acceptor), for which low ratios indicate high phosphorylation and high ratios indicate low phosphorylation levels.

[2] = target: GSK3α (Homo sapiens (Human), UniProt P49840); experiment: GSK 3α enzyme inhibition (FRET, Z-LYTE); assay type: biochemical
Protocol: as §1
The inhibitory activities of compounds of the invention against the GSK 3α enzyme isoform (Invitrogen), are evaluated by determining the level of activation/phosphorylation of the target peptide. The GSK3-α protein (500 ng/mL, 2.5 μL) is mixed with the test compound (2.5 μL at either 4 μg/mL, 0.4 μg/mL, 0.04 μg/mL, or 0.004 μg/mL) for 2 hr at RT. The FRET peptide (8 μM, 2.5 μL), which is a phosphorylation target for GSK3α, and ATP (40 μM, 2.5 μL) are then added to the enzyme/compound mixture and the resulting mixture incubated for 1 hr. Development reagent (protease, 5 μL) is added for 1 hr prior to detection in a fluorescence microplate reader (Varioskan® Flash, ThermoFisher Scientific).
as §2

[3] = system: LPS-induced TNFα release in d-U937 cells; experiment: LPS-induced TNFα release in d-U937 cells; assay type: cell-based; details: Homo sapiens, dU937, relative to 10 μg/mL BIRB796, read-out: LPS Induced Release of Cytokine in d-937 Cells TNFα REC50
Protocol: (§3) U937 cells, a human monocytic cell line, are differentiated into macrophage-type cells by incubation with PMA (100 ng/mL) for 48 to 72 hr. Cells are pre-incubated with final concentrations of test compound for 2 hr and are then stimulated with LPS (0.1 μg/mL) (from E. coli: O111:B4, Sigma) for 4 hr. The supernatant is collected for determination of TNFα and IL-8 concentrations by sandwich ELISA (Duo-set, R&D systems). […] The relative 50% effective concentration (REC50) is determined from the resultant concentration-response curve. The inhibition of IL-8 production is calculated at each concentration of test compound by comparison with vehicle control. […] (b) LPS-Induced TNFα/IL-8 Release in PBMC Cells

[4] = system: LPS-induced IL-8 release in d-U937 cells; experiment: LPS-induced IL-8 release in d-U937 cells; assay type: cell-based; details: Homo sapiens, dU937, read-out: LPS Induced Release of Cytokine in d-937 Cells IL-8 IC50
Protocol: as §3

[5] = system: d-U937 cells; experiment: Cell viability: MTT assay; assay type: cell-based, human; details: 1 μg/mL
Protocol: Differentiated U937 cells are pre-incubated with each test compound (final concentration 1 μg/mL or 10 μg/mL in 200 μL media indicated below) under two protocols: the first for 4 hr in 5% FCS RPMI1640 media and the second in 10% FCS RPMI1640 media for 24 h. The supernatant is replaced with new media (200 μL) and MTT stock solution (10 μL, 5 mg/mL) is added to each well. After incubation for 1 hr the media are removed, DMSO (200 μL) is added to each well and the plates are shaken lightly for 1 hr prior to reading the absorbance at 550 nm. The percentage loss of cell viability is calculated for each well relative to vehicle (0.5% DMSO) treatment. Consequently an apparent increase in cell viability for drug treatment relative to vehicle is tabulated as a negative percentage.

[6] = target: cSrc (Homo sapiens (Human), UniProt P12931); experiment: c-Src enzyme inhibition (FRET, Z-LYTE); assay type: biochemical
Protocol: as §1
(§4) The relevant enzyme (3000 ng/mL or 2000 ng/mL respectively, 2.5 μL) is incubated with the test compound (either 4 μg/mL, 0.4 μg/mL, 0.04 μg/mL, or 0.004 μg/mL, 2.5 μL each) for 2 hr at RT. The FRET peptides (8 μM, 2.5 μL), and appropriate ATP solutions (2.5 μL, 800 μM for c-Src, and 60 μM ATP for Syk) are then added to the enzymes/compound mixtures and incubated for 1 hr. Development reagent (protease, 5 μL) is added for 1 hr prior to detection in a fluorescence microplate reader (Varioskan® Flash, ThermoFisher Scientific).
as §2

[7] = target: Syk (Homo sapiens (Human), UniProt P43405); experiment: Syk enzyme inhibition (FRET, Z-LYTE); assay type: biochemical
Protocol: as §1, §4, §2

[8] = system: Poly I:C-induced ICAM-1 expression in BEAS2B cells; experiment: Poly I:C-induced ICAM-1 expression in BEAS2B cells; assay type: cell-based; details: Homo sapiens, BEAS-2B, read-out: Poly IC induced ICAM1 in BEAS2B IC50
Protocol: Poly I:C is used in these studies as a simple, RNA virus mimic. Poly I:C-Oligofectamine mixture (1 μg/mL Poly I:C, ±2% Oligofectamine, 25 uL) (Invivogen Ltd., San Diego, Calif., and Invitrogen, Carlsbad, Calif., respectively) is transfected into BEAS2B cells (human bronchial epithelial cells, ATCC). Cells are pre-incubated with final concentrations of test compounds for 2 hr and the level of ICAM1 expression on the cell surface is determined by cell-based ELISA. At a time point 18 hr after poly I:C transfection, cells are fixed with 4% formaldehyde in PBS (100 μL) and then endogenous peroxidase is quenched by the addition of washing buffer (100 μL, 0.05% Tween in PBS: PBS-Tween) containing 0.1% sodium azide and 1% hydrogen peroxide. Cells are washed with wash-buffer (3×200 μL). and after blocking the wells with 5% milk in PBS-Tween (100 μL) for 1 hr, the cells are incubated with anti-human ICAM-1 antibody (50 μL) (Cell Signaling Technology, Danvers, Mass.) in 1% BSA PBS overnight at 4° C.
The cells are washed with PBS-Tween (3×200 μL) and incubated with the secondary antibody (100 μL) (HRP-conjugated anti-rabbit IgG, Dako Ltd., Glostrup, Denmark). The cells are then incubated with of substrate (50 μL) for 2-20 min, followed by the addition of stop solution (50 μL, 1N H2SO4). The ICAM-1 signal is detected by reading and reading the absorbance at 450 nm against a reference wavelength of 655 nm using a spectrophotometer. The cells are then washed with PBS-Tween (3×200 μL) and total cell numbers in each well are determined by reading absorbance at 595 nm after Crystal Violet staining (50 μL of a 2% solution in PBS) and elution by 1% SDS solution (100 μL) in distilled water. The measured OD 450-655 readings are corrected for cell number by dividing with the OD595 reading in each well.

Sequence of cSrc (P12931 whole entry, looked up): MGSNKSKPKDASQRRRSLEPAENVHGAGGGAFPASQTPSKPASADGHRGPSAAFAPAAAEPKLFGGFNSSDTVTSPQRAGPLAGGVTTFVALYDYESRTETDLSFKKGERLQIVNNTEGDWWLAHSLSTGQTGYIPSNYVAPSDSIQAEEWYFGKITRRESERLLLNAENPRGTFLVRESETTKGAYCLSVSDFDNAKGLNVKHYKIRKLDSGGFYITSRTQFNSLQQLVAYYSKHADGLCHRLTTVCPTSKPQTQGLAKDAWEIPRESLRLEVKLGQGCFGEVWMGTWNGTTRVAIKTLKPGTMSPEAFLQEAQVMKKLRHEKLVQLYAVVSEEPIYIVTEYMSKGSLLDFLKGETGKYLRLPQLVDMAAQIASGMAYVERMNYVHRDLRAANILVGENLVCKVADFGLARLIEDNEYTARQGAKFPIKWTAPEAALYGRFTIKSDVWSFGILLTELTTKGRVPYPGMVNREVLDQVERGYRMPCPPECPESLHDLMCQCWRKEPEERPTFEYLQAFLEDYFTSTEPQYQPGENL
Sequence of p38 MAPKα (Q16539 whole entry): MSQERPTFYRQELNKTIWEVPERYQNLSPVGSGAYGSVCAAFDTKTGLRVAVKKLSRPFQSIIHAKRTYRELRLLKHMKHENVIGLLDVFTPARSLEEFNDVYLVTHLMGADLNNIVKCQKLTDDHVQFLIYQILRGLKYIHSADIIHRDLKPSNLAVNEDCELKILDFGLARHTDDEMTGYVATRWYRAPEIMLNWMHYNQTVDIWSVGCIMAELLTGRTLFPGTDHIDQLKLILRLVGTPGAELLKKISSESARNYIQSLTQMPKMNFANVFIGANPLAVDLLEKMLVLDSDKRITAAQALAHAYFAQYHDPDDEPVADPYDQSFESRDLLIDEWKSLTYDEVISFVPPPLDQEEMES
Sequence of GSK3α (P49840 whole entry): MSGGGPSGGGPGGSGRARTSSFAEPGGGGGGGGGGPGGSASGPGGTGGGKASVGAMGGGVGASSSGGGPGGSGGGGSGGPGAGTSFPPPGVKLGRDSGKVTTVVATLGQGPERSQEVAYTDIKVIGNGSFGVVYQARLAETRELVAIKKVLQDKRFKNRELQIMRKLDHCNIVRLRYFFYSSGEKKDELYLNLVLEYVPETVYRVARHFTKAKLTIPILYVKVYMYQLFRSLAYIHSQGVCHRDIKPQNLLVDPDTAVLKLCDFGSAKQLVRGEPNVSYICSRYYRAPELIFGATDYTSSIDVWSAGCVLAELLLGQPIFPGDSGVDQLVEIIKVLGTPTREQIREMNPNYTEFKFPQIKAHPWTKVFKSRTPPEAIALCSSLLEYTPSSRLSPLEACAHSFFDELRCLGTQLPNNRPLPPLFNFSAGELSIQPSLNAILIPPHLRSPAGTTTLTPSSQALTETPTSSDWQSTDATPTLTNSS

Row | SMILES | IC50 [1] | IC50 [2] | EC50 [3] | IC50 [4] | IC50 [6] | IC50 [7] | MTT Assay Cell viability at time point in d-U937 cells 4 h [5] | MTT Assay Cell viability at time point in d-U937 cells 24 h [5] | IC50 [8]
1 | Cc1ccc(-n2nc(C(C)(C)C)cc2NC(=O)Nc2ccc(Oc3ccnc(Nc4cnc5[nH]ccc5c4)n3)c3ccccc23)cc1 [Example 32, 1-(4-((2-((1H-pyrrolo[2,3-b]pyridin-5-yl)amino)pyrimidin-4-yl)oxy)naphthalen-1-yl)-3-(3-(tert-butyl)-1-(p-tolyl)-1H-pyrazol-5-yl)urea] | 79 nM | > 1600 nM | 1.7 nM | 0.6 nM |  |  | −ve (−ve and +ve indicate that the value is below and above respectively, the no significant effect threshold, defined as 30% inhibition at 1 μg/mL at the time point indicated.) | −ve (−ve and +ve indicate that the value is below and above respectively, the no significant effect threshold, defined as 30% inhibition at 1 μg/mL at the time point indicated.) | 
2 | COc1ccc(-n2nc(C(C)(C)C)cc2NC(=O)Nc2ccc(Oc3ccnc(Nc4ccc5[nH]nc(C(=O)N(C)C)c5c4)n3)c3ccccc23)cc1 [Example 47, 5-((4-((4-(3-(3-(tert-butyl)-1-(4-methoxyphenyl)-1H-pyrazol-5-yl)ureido)naphthalen-1-yl)oxy)pyrimidin-2-yl)amino)-N,N-dimethyl-1H-indazole-3-carboxamide] | 32 nM | 472 nM | 0.9 nM | 3.3 nM | < 1 nM | 5 nM | −ve (−ve and +ve indicate that the value is below and above respectively, the no significant effect threshold, defined as 30% inhibition at 1 μg/mL at the time point indicated.) | −ve (−ve and +ve indicate that the value is below and above respectively, the no significant effect threshold, defined as 30% inhibition at 1 μg/mL at the time point indicated.) | 0.5 nM
3 | COc1ccc(-n2nc(C(C)C)cc2NC(=O)Nc2ccc(Oc3ccnc(Nc4ccc5[nH]nc(OCCN6CCOCC6)c5c4)n3)c3ccccc23)cc1 [Example 44, 1-(3-isopropyl-1-(4-methoxyphenyl)-1H-pyrazol-5-yl)-3-(4-((2-((3-(2-morpholinoethoxy)-1H-indazol-5-yl)amino)pyrimidin-4-yl)oxy)naphthalen-1-yl)urea] | 5 nM | 203 nM | 0.4 nM | 0.8 nM | 2 nM | 2 nM | −ve (−ve and +ve indicate that the value is below and above respectively, the no significant effect threshold, defined as 30% inhibition at 1 μg/mL at the time point indicated.) | −ve (−ve and +ve indicate that the value is below and above respectively, the no significant effect threshold, defined as 30% inhibition at 1 μg/mL at the time point indicated.) | 1.4 nM
4 | COCCOc1cccc(-n2nc(C(C)(C)C)cc2NC(=O)Nc2ccc(Oc3ccnc(Nc4cc(C)c5[nH]ncc5c4)c3)c3ccccc23)c1 [Example 57] | 74 nM | 4700 nM | 1.1 nM | 2.3 nM | 19 nM | 15 nM | −ve (−ve and +ve indicate that the value is below and above respectively, the no significant effect threshold, defined as 30% inhibition at 1 μg/mL at the time point indicated.) | −ve (−ve and +ve indicate that the value is below and above respectively, the no significant effect threshold, defined as 30% inhibition at 1 μg/mL at the time point indicated.) | 4.4 nM

Now from value to compound, other results behind:

Row | IC50 [1] | IC50 [2] | EC50 [3] | IC50 [4] | IC50 [6] | IC50 [7] | SMILES | MTT Assay Cell viability at time point in d-U937 cells 4 h [5] | MTT Assay Cell viability at time point in d-U937 cells 24 h [5] | IC50 [8]
5 | 13 nM | 2290 nM | 1.6 nM | 1.7 nM | 2 nM | 3 nM | Cc1n[nH]c2ccc(Nc3nccc(Oc4ccc(NC(=O)Nc5cc(C(C)(C)C)nn5-c5ccc(OCCN6CCOCC6)cc5)c5ccccc45)n3)cc12 [Example 72] | −ve (−ve and +ve indicate that the value is below and above respectively, the no significant effect threshold, defined as 30% inhibition at 1 μg/mL at the time point indicated.) | −ve (−ve and +ve indicate that the value is below and above respectively, the no significant effect threshold, defined as 30% inhibition at 1 μg/mL at the time point indicated.) | 165 nM
6 |  | > 16000 nM | 1.7 nM | 5 nM |  | 182 nM | Cc1ccc(-n2nc(C(C)(C)C)cc2NC(=O)Nc2ccc(Oc3ccnc(Nc4cccc5[nH]ncc45)n3)c3ccccc23)cc1 [Example 21] | −ve (−ve and +ve indicate that the value is below and above respectively, the no significant effect threshold, defined as 30% inhibition at 1 μg/mL at the time point indicated.) | −ve (−ve and +ve indicate that the value is below and above respectively, the no significant effect threshold, defined as 30% inhibition at 1 μg/mL at the time point indicated.) | 3 nM
